Test system: 475296-252-R-J1-PDC spheroid viability
Test: Anticancer human tumor 475296-252-R-J1-PDC patient-derived rectal carcinoma cell line growth inhibition [PI3K]
Conditions: spheroids with HUVEC and MSC; for IC50: curve of first compound; for viability, T/C: stronger effect = lower value
From the text: Combinatorial screen of targeted agents with the PI3K inhibitors inavolisib, alpelisib, duvelisib, and copanlisib in multi-cell type tumor spheroids
A high-throughput screen of multi-cell type tumor spheroids was designed to identify active combinations of targeted small molecules and PI3K pathway inhibitors. Complex spheroids include a stromal component modeled by human endothelial cells (HUVEC) and fibroblasts modeled by human mesenchymal stem cells (MSCs). The concentration ranges selected for each drug and investigational agent were based upon clinically achievable concentrations if the clinical Cmax of the agent was known.
Compounds. The drugs and investigational agents: inavolisib (NSC800729), alpelisib (NSC765974), duvelisib (NSC772469), copanlisib (NSC816437), ipatasertib (NSC767898), afuresertib (NSC778305), talazoparib (NSC767125), sapanisertib (NSC764658), selumetinib (NSC741078), tovorafenib (DAY101, NSC766906), vemurafenib (NSC761431), ravoxertinib (NSC781343), sotorasib (NSC818433), MRTX1133 (NSC 836407), abemaciclib (NSC 768073), palbociclib (NSC758247), venetoclax (NSC 766270), SY5609 (NSC837396), enzalutamide (NSC755605), and darolutamide (NSC825331), were obtained from the National Cancer Institute (NCI) Developmental Therapeutics Program Chemical Repository. The FDA-approved anticancer drug set is available from the NCI Developmental Therapeutics Program. […] The stock solutions were prepared in dimethyl sulfoxide (DMSO, Sigma-Aldrich, St. Louis, MO, cat. D2650) at 800-fold the tested concentration and stored at -70 degrees C prior to their use. All drugs and investigational agents were tested over a range starting from a high concentration at or near the clinical Cmax and decreasing in half-log increments. If the clinical Cmax for an agent had not been determined, the highest concentration tested was 10 microM.
Cell Culture. All cells were maintained in an incubator at 37 degrees C and 5% CO2 with 95% humidity. The PDC lines were cultured according to standard operating procedures established by the NCI PDMR (https://pdmr.cancer.gov/sops/default.htm). All PDCs were thawed and cultured in Matrigel-coated flasks prepared with a working solution of 1X Ham's F-12 nutrient mix, without supplementation (Invitrogen, Waltham, MA, cat. 11765054), 100 U/mL penicillin-streptomycin (Invitrogen, cat. 15140122), and 2.5% Matrigel (Corning Inc., Corning, NY, cat. 354248) for the first three passages. The 354836-022-R-J1-PDC, 475296-252-R-J1-PDC, and 997726-040-R-J2-PDC lines were cultured in 6A media, which includes advanced DMEM/F-12 (Thermo Fisher Scientific, cat. 12634028), 10 mM HEPES (Thermo Fisher Scientific, cat. 15630080), 1X GlutaMAX supplement (Thermo Fisher Scientific, cat. 35050061), 0.1 mg/mL primocin (InvivoGen, San Diego, CA, cat. ant-pm-2), 10% defined fetal bovine serum, heat inactivated (HyClone Laboratories Inc., Logan, UT, cat. SH30070.03HI), 50% L-WRN conditioned media (ATCC, cat. CRL-3276), 1.25 mM N-Acetyl-L-cysteine (Sigma-Aldrich, cat. A9165), 10 mM nicotinamide (Sigma-Aldrich, cat. N0636), 1X B-27 supplement (Thermo Fisher Scientific, cat. 17504044), 1X N-2 supplement (Thermo Fisher Scientific, cat. 17502048), and 10 microM Y-27632 dihydrochloride (Tocris Bioscience, Bristol, United Kingdom, cat. 1254). The 624824-186-R-J2-PDC line was cultured in 6C/Colon 1B media, which includes all 6A media components plus 50 ng/mL human EGF recombinant protein (Thermo Fisher Scientific, cat. PHG0311). […]
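Also: spheroids exposed to agents for seven days before readout.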

`Cn1ncc(Cl)c1-c1cc(C(=O)NC(CN)Cc2cccc(F)c2)sc1Cl` (configuration not stated) + CC(Nc1ncnc2nc[nH]c12)c1cc2cccc(Cl)c2c(=O)n1-c1ccccc1 was tested, and the IC50 (second compound 0.0316 µM) was > 10 µM, the IC50 (second compound 0.1 µM) was > 10 µM and the IC50 (second compound 0.316 µM) was > 10 µM. The IC50 (second compound 1 µM) was > 10 µM, the IC50 (second compound 3.16 µM) was > 10 µM and the IC50 (second compound 10 µM) was > 10 µM. For the same molecule, the viability, T/C (second compound 0.0316 µM, first compound 0.0316 µM) was 101%, the viability, T/C (second compound 0.0316 µM, first compound 0.1 µM) was 83.3% and the viability, T/C (second compound 0.0316 µM, first compound 0.316 µM) was 60.1%. The viability, T/C (second compound 0.0316 µM, first compound 1 µM) was 71.5%, the viability, T/C (second compound 0.0316 µM, first compound 3.16 µM) was 71.7% and the viability, T/C (second compound 0.0316 µM, first compound 10 µM) was 61.5%. The viability, T/C (second compound 0.1 µM, first compound 0.0316 µM) was 95.7%, the viability, T/C (second compound 0.1 µM, first compound 0.1 µM) was 80% and the viability, T/C (second compound 0.1 µM, first compound 0.316 µM) was 64.9%. It also gave a viability, T/C (second compound 0.1 µM, first compound 1 µM) of 63.6%, a viability, T/C (second compound 0.1 µM, first compound 3.16 µM) of 70.2% and a viability, T/C (second compound 0.1 µM, first compound 10 µM) of 57%. It also gave a viability, T/C (second compound 0.316 µM, first compound 0.0316 µM) of 90.5%, a viability, T/C (second compound 0.316 µM, first compound 0.1 µM) of 77.6% and a viability, T/C (second compound 0.316 µM, first compound 0.316 µM) of 56.5%. For the same molecule, the viability, T/C (second compound 0.316 µM, first compound 1 µM) was 65.4%, the viability, T/C (second compound 0.316 µM, first compound 3.16 µM) was 59.8% and the viability, T/C (second compound 0.316 µM, first compound 10 µM) was 57.6%. It also gave a viability, T/C (second compound 1 µM, first compound 0.0316 µM) of 87.5%, a viability, T/C (second compound 1 µM, first compound 0.1 µM) of 74.7% and a viability, T/C (second compound 1 µM, first compound 0.316 µM) of 58.2%. The viability, T/C (second compound 1 µM, first compound 1 µM) was 60.5%, the viability, T/C (second compound 1 µM, first compound 3.16 µM) was 55.6% and the viability, T/C (second compound 1 µM, first compound 10 µM) was 62.1%. The viability, T/C (second compound 3.16 µM, first compound 0.0316 µM) was 87%, the viability, T/C (second compound 3.16 µM, first compound 0.1 µM) was 80.4% and the viability, T/C (second compound 3.16 µM, first compound 0.316 µM) was 51.4%. It also gave a viability, T/C (second compound 3.16 µM, first compound 1 µM) of 50.9%, a viability, T/C (second compound 3.16 µM, first compound 3.16 µM) of 60.7% and a viability, T/C (second compound 3.16 µM, first compound 10 µM) of 52.1%. For the same molecule, the viability, T/C (second compound 10 µM, first compound 0.0316 µM) was 92.3%, the viability, T/C (second compound 10 µM, first compound 0.1 µM) was 77% and the viability, T/C (second compound 10 µM, first compound 0.316 µM) was 60.5%. For the same molecule, the viability, T/C (second compound 10 µM, first compound 1 µM) was 58.8%, the viability, T/C (second compound 10 µM, first compound 3.16 µM) was 62.8% and the viability, T/C (second compound 10 µM, first compound 10 µM) was 46.7%.
